Patent publication US5462933A, “Modified bile acid conjugates, and their use as pharmaceuticals” (Hoechst Aktiengesellschaft, priority 1989, dated 1995)

Experiment: In vivo perfused liver: absorption from portal vein blood and excretion into the bile
Set-up: species or system rat
Details: after W-X-G (Example 67)
Procedure: In order to investigate a selective absorption of bile acid derivatives into the liver and their hepatotropic action, the appropriate derivatives were injected as a bolus into a mesenteric vein of anesthetized rats and the excretion of these derivatives and the corresponding active compounds or active compound metabolites into the bile was analysed.
Male Sprague-Dawley rats (300-500 g bodyweight) had their food withdrawn and received water ad libitum. After tracheotomy, the abdomen was opened by median section under urethane anesthesia ([…] i.m. urethane 30%). The pylorus was ligated and the bile duct was cannulated by advancing a polyethylene tube (d=0.05 mm) up to the liver and the bile was drained. The volume of secretion was measured at 15 minute intervals. After a preliminary period of 60 minutes, the substances (0.5 ml of a 1 mM solution in 0.9% NaCl solution) were administered into a mesenteric vein in the course of 30 sec and the bile was collected at prestated time intervals (2, 4, 6, 8, 10, 15, 20, 30, 40, 50, 60, 70, 80, 90, 100, 110 and 120 min). The bile acid derivative was administered first, and the appropriate active compound was administered after a collection period of 2 hours. 120 min after administration of test substance, the bladder volume was measured and the urine was also collected. The bile and urine samples were stored on ice during the experiment and then deep-frozen.
Each 10 μl bile sample was applied to TLC plates (10×20 cm, silica gel 60 specific layer thickness 0.25 mm, No. 37581 Riedel de Haen, Seelze, Federal Republic of Germany) using Microcaps (Drummond, Broomall, USA) and the thin-layer plates were dried in the air for 20 min.
The plates were developed in the following mobile phases: Substance Mobile phase
The constituents of the mobile phases were bought from the usual manufacturers in the highest possible purity grade. After developing and drying the plates, the distribution of the active compounds and the bile acid derivatives, or their metabolites, was determined by densitometry (CD 50 densitometer, DESAGA; Heidelberg). Detection was carried out in reflection mode with linear sampling at the wavelengths 252 nm (chlorambucil/chlorambucil conjugate) or 260 nm (remaining substances).
In order to evaluate the chromatograms, the relative intensity of the bile acid derivatives, the active compounds or the active compound metabolites on a chromatogram was given in surface area units.

Question: For C[C@H](CCC(=O)NCCS(=O)(=O)O)[C@H]1CC[C@H]2[C@@H]3[C@H](O)C[C@@H]4C[C@@H](OCCNC(=O)CCCc5ccc(N(CCCl)CCCl)cc5)CC[C@]4(C)[C@H]3C[C@H](O)[C@]12C [Example 67], which “(2) Conc. W-X-G in bile” value (bile at 2 min) is on record?
Answer: The value was 1207 surface area units.

Question: What about the “Total (1) + (2)” value (bile at 2 min) of the same compound?
Answer: The value was 1207 surface area units.

Question: What about the “(2) Conc. W-X-G in bile” value (bile at 4 min) of the same compound?
Answer: Its value is 17803 surface area units.

Question: And the “Total (1) + (2)” value (bile at 4 min)?
Answer: The value was 17803 surface area units.

Question: What about the “(2) Conc. W-X-G in bile” value (bile at 6 min) of the same compound?
Answer: The value was 21762 surface area units.

Question: What about the “Total (1) + (2)” value (bile at 6 min) of the same compound?
Answer: The value was 21762 surface area units.

Question: What about the “(2) Conc. W-X-G in bile” value (bile at 8 min) of the same compound?
Answer: The value was 27280 surface area units.

Question: And the “Total (1) + (2)” value (bile at 8 min)?
Answer: The value was 27280 surface area units.

Question: And the “(2) Conc. W-X-G in bile” value (bile at 10 min)?
Answer: The value was 27346 surface area units.

Question: What about the “Total (1) + (2)” value (bile at 10 min) of the same compound?
Answer: The value was 27346 surface area units.

Question: And the “(2) Conc. W-X-G in bile” value (bile at 15 min)?
Answer: The value was 16673 surface area units.

Question: And the “Total (1) + (2)” value (bile at 15 min)?
Answer: Its value is 16673 surface area units.

Question: What about the “(2) Conc. W-X-G in bile” value (bile at 20 min) of the same compound?
Answer: Its value is 10748 surface area units.

Question: And the “Total (1) + (2)” value (bile at 20 min)?
Answer: The value was 10748 surface area units.

Question: And the “(2) Conc. W-X-G in bile” value (bile at 30 min)?
Answer: Its value is 5375 surface area units.

Question: What about the “Total (1) + (2)” value (bile at 30 min) of the same compound?
Answer: Its value is 5375 surface area units.

Question: And the “(2) Conc. W-X-G in bile” value (bile at 40 min)?
Answer: Its value is 1273 surface area units.

Question: And the “Total (1) + (2)” value (bile at 40 min)?
Answer: Its value is 1273 surface area units.

Question: What about the “(2) Conc. W-X-G in bile” value (bile at 50 min) of the same compound?
Answer: Its value is 828 surface area units.

Question: And the “Total (1) + (2)” value (bile at 50 min)?
Answer: Its value is 828 surface area units.

Question: What about the “(2) Conc. W-X-G in bile” value (bile at 60 min) of the same compound?
Answer: Its value is 633 surface area units.

Question: What about the “Total (1) + (2)” value (bile at 60 min) of the same compound?
Answer: The value was 633 surface area units.

Question: What about the “(2) Conc. W-X-G in bile” value (bile at 70 min) of the same compound?
Answer: The value was 826 surface area units.

Question: And the “Total (1) + (2)” value (bile at 70 min)?
Answer: The value was 826 surface area units.

Question: And the “(2) Conc. W-X-G in bile” value (bile at 80 min)?
Answer: The value was 635 surface area units.

Question: What about the “Total (1) + (2)” value (bile at 80 min) of the same compound?
Answer: Its value is 635 surface area units.

Question: And the “(2) Conc. W-X-G in bile” value (bile at 90 min)?
Answer: Its value is 638 surface area units.

Question: And the “Total (1) + (2)” value (bile at 90 min)?
Answer: Its value is 638 surface area units.

Question: What about the “(2) Conc. W-X-G in bile” value (bile at 100 min) of the same compound?
Answer: The value was 559 surface area units.

Question: What about the “Total (1) + (2)” value (bile at 100 min) of the same compound?
Answer: The value was 559 surface area units.

Question: And the “(2) Conc. W-X-G in bile” value (bile at 110 min)?
Answer: The value was 408 surface area units.

Question: What about the “Total (1) + (2)” value (bile at 110 min) of the same compound?
Answer: Its value is 408 surface area units.

Question: What about the “(2) Conc. W-X-G in bile” value (bile at 120 min) of the same compound?
Answer: Its value is 383 surface area units.

Question: What about the “Total (1) + (2)” value (bile at 120 min) of the same compound?
Answer: The value was 383 surface area units.
